pKi: −log10 of the molar value. Non-standard residues stand in square brackets, D forms with d. No end group written: not given here. *: point of attachment. Myristoyl = CCCCCCCCCCCCCC(=O)*; Ac6c = NC1(C(=O)O)CCCCC1; Nle = CCCC[C@H](N)C(=O)O; Orn = NCCC[C@H](N)C(=O)O; Ac5c = NC1(C(=O)O)CCCC1; Aib = CC(C)(N)C(=O)O

By pKi is commonly meant the Ki on a negative log10 scale, so that one unit is a factor of ten.

A short description of series [1]: Human plasma half-life assay. The following applies: 37° C., LC-MS, read-out: Human Plasma T½ (converted). In kind it is in vitro ADME. How it is done:
(§1) B. Human and Rat Plasma Half-Life Assay
(§2) 50 μL was removed at various times, like at 0, 1, 2, 3, 4, 8, 24, 32, 48, 56, 72 hours, mixed with 5 μL formic acid and 150 μL acetonitrile in a microcentrifuge tube, vertexed, and centrifuged for 10 minutes at 10K rpm. The supernatant was transferred to an injection vial and analyzed by LC-MS. The LC-MS system consisted of an API4000 mass spectrometer with an ESI probe. Positive ion mode and full scan detection were used. HPLC separation was carried out on a Luna 3μ C8 (2), 2×30 mm column with a gradient from 90% A to 90% B in 10 minutes at a flow rate of 0.3 ml/min. Buffer A was 1% formic acid in water and buffer B was 1% formic acid acetonitrile.

Series [2] is described as follows: Rat plasma half-life assay. In kind it is in vitro ADME. The following applies: 37° C., LC-MS, read-out: Rat Plasma T½ (converted). How it is done:
as §1, §2

For series [3], the system named is Sprague Dawley rats. Nature of the series: Determination of in vivo insulin secretion in normal rats. Also on record: species or system rat. How it is done: D. Determination of In Vivo Insulin Secretion in Normal Rats
Male Sprague Dawley rats with a body weight of approximately 275-300 g were used as experimental subjects. The day prior to the treatment, right atrial cannulae were implanted via the jugular vein under chlorohydrate. Each cannula was filled with 100 u/ml heparin saline and tied. The rats were fasted for approximately 18 hours prior to dosing with the compound or the vehicle (saline/0.25% BSA). The day of the experiment, aliquots of compound were thawed, brought to room temperature and vortexed thoroughly. A careful check was made for any sign of compound coming out of solution. 10 minutes prior to compound/glucose injection, a 500 μl blood sample was withdrawn and replaced with an equal volume of heparinized saline (10 u/ml). At time 0, a 500 μl blood sample was withdrawn through the cannula. Next, either the vehicle or the appropriate dose of the compound was injected into the cannula and pushed in with the glucose (1 g/kg) or vehicle solution. Finally, 500 μl of volume of heparinized saline (10 u/ml) was used to push in the remaining glucose through the cannula. Additional 500 μl blood samples were withdrawn at 2.5, 5, 10, and 20-minute post-glucose dosing; each immediately followed by a bolus, iv injection of 500 μl heparinized saline (10 u/ml) through the cannula. The plasma was collected from the blood samples by centrifugation, and stored at −20° C. until assay for insulin content.
The in vivo effect of the compound of Example 20 was determined in a separate test under the identical experimental conditions as described above, and numerical values of the total insulin secretion for the compound of Example 20 are summarized in Table 4.

In series [4] the target is T1, human recombinant GIP receptor (Homo sapiens, UniProt P48546).
T1 construct: expressed in transfected cells; host or cells: CHO-K1 clonal cells (membrane preparation)
T1 sequence (P48546 22-466): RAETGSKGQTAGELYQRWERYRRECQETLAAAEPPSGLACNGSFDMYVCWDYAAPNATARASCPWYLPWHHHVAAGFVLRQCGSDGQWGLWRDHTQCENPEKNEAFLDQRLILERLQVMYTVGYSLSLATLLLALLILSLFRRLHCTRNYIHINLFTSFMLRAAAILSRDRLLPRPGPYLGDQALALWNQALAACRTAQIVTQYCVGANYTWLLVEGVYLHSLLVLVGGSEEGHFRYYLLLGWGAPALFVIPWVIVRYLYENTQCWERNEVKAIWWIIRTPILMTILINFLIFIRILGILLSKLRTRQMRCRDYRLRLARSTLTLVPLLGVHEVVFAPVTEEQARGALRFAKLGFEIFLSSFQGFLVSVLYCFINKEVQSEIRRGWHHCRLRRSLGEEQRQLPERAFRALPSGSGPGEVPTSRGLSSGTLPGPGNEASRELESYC
Nature of the series: In vitro hGIP receptor binding assay. How it is done:
The final assay volume was 0.5 ml. The incubations were terminated by rapid filtration through GF/C filters (pre-soaked in 0.5% polyethylenimine) using a Brandel filtration manifold. Each tube and filter were then washed three times with 5-ml aliquots of ice-cold buffer.

Where [5] appears, read: Table 3, fasted male Sprague Dawley rats, compound by cannula with glucose 1 g/kg, blood samples to 20 min.

On to `CC[C@H](C)[C@H](NC(=O)[C@H](CCCCN)NC(=O)[C@H](CC(=O)O)NC(=O)[C@H](CCSC)NC(=O)[C@H](C)NC(=O)[C@@H](NC(=O)C1(NC(=O)[C@H](Cc2ccc(O)cc2)NC(=O)[C@H](CC(=O)O)NC(=O)[C@H](CO)NC(=O)[C@@H](NC(=O)[C@H](Cc2ccccc2)NC(=O)[C@@H](NC(=O)CNC(=O)[C@H](CCC(=O)O)NC(=O)[C@H](C)NC(=O)[C@@H](N)Cc2ccc(O)cc2)[C@@H](C)O)[C@@H](C)CC)CCCC1)[C@@H](C)CC)C(=O)N[C@@H](Cc1c[nH]cn1)C(=O)N[C@@H](CCC(N)=O)C(=O)N[C@@H](CCC(N)=O)C(=O)N[C@@H](CC(=O)O)C(=O)N[C@@H](Cc1ccccc1)C(=O)N[C@H](C(=O)N[C@@H](CC(N)=O)C(=O)N[C@@H](Cc1c[nH]c2ccccc12)C(=O)N[C@@H](CC(C)C)C(=O)N[C@@H](CC(C)C)C(=O)N[C@@H](C)C(=O)N[C@@H](CCC(N)=O)C(=O)N[C@@H](CCCCN)C(=O)NCC(=O)N[C@@H](CCCCN)C(=O)N[C@@H](CCCCN)C(=O)N[C@@H](CC(N)=O)C(=O)N[C@@H](CC(=O)O)C(=O)N[C@@H](Cc1c[nH]c2ccccc12)C(=O)N[C@@H](CCCCN)C(=O)N[C@@H](Cc1c[nH]cn1)C(=O)N[C@@H](CC(N)=O)C(=O)N[C@H](C(=O)N[C@H](C(=O)N[C@@H](CCC(N)=O)C(=O)N[C@@H](Cc1c[nH]cn1)C(=O)O)[C@@H](C)O)[C@@H](C)CC)C(C)C` [Example 3, (A5c^11, His^43)hGIP(1-43)-OH], for which the figures for the half-life at 0.1 mg/ml in series [1] and in series [2] were 7 h and 1.9 h, respectively. Besides, in series [3] (setting [5]), the “AUC (total insulin secretion)” value was found to be 269.83.
`CC[C@H](C)[C@H](NC(=O)[C@H](CCCCN)NC(=O)[C@H](CC(=O)O)NC(=O)C1(NC(=O)[C@H](C)NC(=O)[C@@H](NC(=O)C2(NC(=O)[C@H](Cc3ccc(O)cc3)NC(=O)[C@H](CC(=O)O)NC(=O)[C@H](CO)NC(=O)[C@@H](NC(=O)[C@H](Cc3ccccc3)NC(=O)[C@@H](NC(=O)CNC(=O)[C@H](CCC(=O)O)NC(=O)[C@H](C)NC(=O)[C@@H](N)Cc3ccc(O)cc3)[C@@H](C)O)[C@@H](C)CC)CCCC2)[C@@H](C)CC)CCCC1)C(=O)N[C@@H](Cc1c[nH]cn1)C(=O)N[C@@H](CCC(N)=O)C(=O)N[C@@H](CCC(N)=O)C(=O)N[C@@H](CC(=O)O)C(=O)N[C@@H](Cc1ccccc1)C(=O)N[C@H](C(=O)N[C@@H](CC(N)=O)C(=O)N[C@@H](Cc1c[nH]c2ccccc12)C(=O)N[C@@H](CC(C)C)C(=O)N[C@@H](CC(C)C)C(=O)N[C@@H](C)C(=O)N[C@@H](CCC(N)=O)C(=O)N[C@@H](CCCCN)C(=O)NCC(=O)N[C@@H](CCCCN)C(=O)N[C@@H](CCCCN)C(=O)N[C@@H](CC(N)=O)C(=O)N[C@@H](CC(=O)O)C(=O)N[C@@H](Cc1c[nH]c2ccccc12)C(=O)N[C@@H](CCCCN)C(=O)N[C@@H](Cc1c[nH]cn1)C(=O)N[C@@H](CC(N)=O)C(=O)N[C@H](C(=O)N[C@H](C(=O)N[C@@H](CCC(N)=O)C(=O)N[C@@H](Cc1c[nH]cn1)C(=O)O)[C@@H](C)O)[C@@H](C)CC)C(C)C` [Example 20, (A5c^11, 14, His^43)hGIP(1-43)-OH]: the half-life at 0.1 mg/ml in series [1] was 7.2 h; in series [2] it was 4.9 h. In addition, the “AUC (total insulin secretion)” value in series [3] (Table 4, separate test under identical experimental conditions) was found to be 149.39.
Take “Glucose-dependent insulinotropic polypeptide [GIP, reference compound]”: the “AUC (total insulin secretion)” value in series [3] (setting [5]) was 114.87.
As to “YAEGTFISDYSI[Aib]MDKIHQQDFVNWLLAQKGKKNDWKHNITQD-NH2 [Example 5, (Aib^13, Asp^43)hGIP(1-43)-NH2]”, the half-life at 0.1 mg/ml in series [1] is 5.5 h; in series [2] it was 1.3 h. In series [3] (setting [5]), the “AUC (total insulin secretion)” value is 196.17.
The like results for “YAEGTFISDYSI[Aib]MDKIHQQDFVNWLLAQKGKKNDWKHN[Ac5c]TQ-OH [Example 7, (Aib^13, A5c^40)hGIP(1-42)-OH]” were, in that order, 7 h, 1.7 h and 176.90.
On to “YAEGTFISDYSI[Aib][Nle]DKIHQQDFVNWLLAQKGKKNDWKHN[Ac5c]TQ-OH [Example 6, (Aib^13, Nle^14, A5c^40)hGIP(1-42)-OH]”, for which the half-life at 0.1 mg/ml in series [1] was 7.8 h; in series [2] it was 1.9 h. Moreover, in series [3] (setting [5]), the “AUC (total insulin secretion)” value turned out to be 180.31.
Consider “YAEGTFISDY[Ac5c]IAMDKIHQQDFVNWLLAQKGKKNDWKHNITQN-OH [Example 4, (A5c^11, Asn^43)hGIP(1-43)-OH]”, for which the half-life at 0.1 mg/ml is 7.2 h in series [1] and 4.1 h in series [2]. The “AUC (total insulin secretion)” value in series [3] (setting [5]) was 265.11.
Regarding “YAEGTFISDY[Ac5c]IAMDKIHQQDFVNWLLAQKGKKNDWKHNI[Ac5c]Q-OH [Example 1, (A5c^11, 41)hGIP(1-42)-OH]”, the half-life at 0.1 mg/ml was 11.4 h in series [1] and 2.2 h in series [2]. Also, the “AUC (total insulin secretion)” value in series [3] (setting [5]) came out at 304.92.
Regarding “YAEGTFISDY[Ac5c]IAMDKIHQQDFVNWLLAQKGKKNDWKHN[Ac5c]TQ-OH [Example 2, (A5c^11, 40)hGIP(1-42)-OH]”, the half-life at 0.1 mg/ml in series [1] is 14.1 h; in series [2], 2.7 h. In addition, in series [3] (setting [5]), the “AUC (total insulin secretion)” value turned out to be 286.02.
For the molecule “YAEGTF[Ac6c]SDYSIAMDKIHQQDFVNWLLAQK[Orn](Myristoyl)KKNDWKHNITQ-OH [Example 19, [A6c^7, Orn^31(N—C(O)—(CH2)12—CH3)]hGIP(1-42)-OH]”, the pKi in series [4] is 7.74. The half-life at 0.1 mg/ml in series [1] is 6.3 h; in series [2], 54.6 h.
